Laboratory results published in the NIST ThermoML archive (doi:10.1016/j.fluid.2004.09.013).
Numbers after ± are expanded uncertainties.

Conditions: for mass density: Fluid (supercritical or subcritical phases), Vibrating tube method

For `C/C=C\C` [(Z)-2-butene], the mass density (453.24 K, 29992 kPa) was 504.64 ± 1.2 kg/m3, the mass density (453.24 K, 34997 kPa) was 516.94 ± 1.3 kg/m3 and the mass density (453.24 K, 39986 kPa) was 527.56 ± 1.4 kg/m3. The mass density (458.24 K, 5019 kPa) was 150.54 ± 0.7 kg/m3, the mass density (458.24 K, 9982 kPa) was 395.53 ± 0.93 kg/m3 and the mass density (458.24 K, 14988 kPa) was 439.55 ± 0.99 kg/m3. It also gave a mass density (458.24 K, 20006 kPa) of 465.63 ± 1.1 kg/m3, a mass density (458.24 K, 24985 kPa) of 484.52 ± 1.2 kg/m3 and a mass density (458.24 K, 30000 kPa) of 499.71 ± 1.2 kg/m3. For the same compound, the mass density (458.24 K, 34991 kPa) was 512.34 ± 1.3 kg/m3, the mass density (458.24 K, 39989 kPa) was 523.28 ± 1.4 kg/m3 and the mass density (463.23 K, 39987 kPa) was 519.02 ± 1.4 kg/m3. It also gave a mass density (463.24 K, 5019 kPa) of 137.08 ± 0.68 kg/m3, a mass density (463.24 K, 9986 kPa) of 383.54 ± 0.91 kg/m3 and a mass density (463.24 K, 14987 kPa) of 431.68 ± 0.97 kg/m3. The mass density (463.24 K, 20001 kPa) was 459.21 ± 1.1 kg/m3, the mass density (463.24 K, 24986 kPa) was 479.01 ± 1.1 kg/m3 and the mass density (463.24 K, 29986 kPa) was 494.71 ± 1.2 kg/m3. The mass density (463.24 K, 34995 kPa) was 507.77 ± 1.3 kg/m3, the mass density (468.24 K, 5018 kPa) was 127.59 ± 0.66 kg/m3 and the mass density (468.24 K, 10000 kPa) was 371.16 ± 0.89 kg/m3. The mass density (468.24 K, 14996 kPa) was 423.86 ± 0.96 kg/m3, the mass density (468.24 K, 20007 kPa) was 452.9 ± 1.1 kg/m3 and the mass density (468.24 K, 24993 kPa) was 473.52 ± 1.1 kg/m3. For the same compound, the mass density (468.24 K, 29993 kPa) was 489.76 ± 1.2 kg/m3, the mass density (468.24 K, 34996 kPa) was 503.22 ± 1.3 kg/m3 and the mass density (468.24 K, 40007 kPa) was 514.77 ± 1.4 kg/m3. The mass density (473.23 K, 5018 kPa) was 120.28 ± 0.64 kg/m3, the mass density (473.24 K, 9991 kPa) was 357.88 ± 0.87 kg/m3 and the mass density (473.24 K, 14997 kPa) was 415.28 ± 0.94 kg/m3. The mass density (473.24 K, 20004 kPa) was 446.42 ± 1 kg/m3, the mass density (473.24 K, 25004 kPa) was 467.94 ± 1.1 kg/m3 and the mass density (473.24 K, 30000 kPa) was 484.78 ± 1.2 kg/m3. For the same compound, the mass density (473.24 K, 34996 kPa) was 498.62 ± 1.3 kg/m3, the mass density (473.24 K, 39991 kPa) was 510.47 ± 1.4 kg/m3 and the mass density (478.23 K, 14995 kPa) was 407.2 ± 0.92 kg/m3. The mass density (478.23 K, 19994 kPa) was 439.87 ± 1 kg/m3, the mass density (478.23 K, 25001 kPa) was 462.4 ± 1.1 kg/m3 and the mass density (478.23 K, 35013 kPa) was 494.09 ± 1.3 kg/m3. The mass density (478.23 K, 39992 kPa) was 506.21 ± 1.4 kg/m3, the mass density (478.24 K, 5015 kPa) was 114.19 ± 0.61 kg/m3 and the mass density (478.24 K, 9987 kPa) was 344.22 ± 0.84 kg/m3. It also gave a mass density (478.24 K, 29999 kPa) of 479.77 ± 1.2 kg/m3, a mass density (483.23 K, 5018 kPa) of 109.23 ± 0.59 kg/m3 and a mass density (483.23 K, 19992 kPa) of 433.21 ± 1 kg/m3. For the same compound, the mass density (483.24 K, 10014 kPa) was 330.62 ± 0.82 kg/m3, the mass density (483.24 K, 14991 kPa) was 398.7 ± 0.91 kg/m3 and the mass density (483.24 K, 25005 kPa) was 456.72 ± 1.1 kg/m3. The mass density (483.24 K, 29995 kPa) was 474.68 ± 1.2 kg/m3, the mass density (483.24 K, 34999 kPa) was 489.39 ± 1.3 kg/m3 and the mass density (483.24 K, 39992 kPa) was 501.87 ± 1.4 kg/m3. It also gave a mass density (488.23 K, 5019 kPa) of 104.99 ± 0.56 kg/m3, a mass density (488.23 K, 19987 kPa) of 426.61 ± 1 kg/m3 and a mass density (488.23 K, 25005 kPa) of 451.11 ± 1.1 kg/m3. It also gave a mass density (488.23 K, 29989 kPa) of 469.66 ± 1.2 kg/m3, a mass density (488.23 K, 34990 kPa) of 484.81 ± 1.3 kg/m3 and a mass density (488.23 K, 39992 kPa) of 497.63 ± 1.4 kg/m3. The mass density (488.24 K, 10014 kPa) was 316.46 ± 0.79 kg/m3, the mass density (488.24 K, 15002 kPa) was 390.34 ± 0.89 kg/m3 and the mass density (493.23 K, 5016 kPa) was 101.23 ± 0.54 kg/m3. The mass density (493.23 K, 9986 kPa) was 301.65 ± 0.76 kg/m3, the mass density (493.23 K, 14996 kPa) was 381.74 ± 0.88 kg/m3 and the mass density (493.23 K, 19990 kPa) was 420.02 ± 0.98 kg/m3. The mass density (493.23 K, 24987 kPa) was 445.42 ± 1.1 kg/m3, the mass density (493.23 K, 29998 kPa) was 464.71 ± 1.2 kg/m3 and the mass density (493.23 K, 35003 kPa) was 480.29 ± 1.3 kg/m3. It also gave a mass density (493.23 K, 40013 kPa) of 493.44 ± 1.4 kg/m3, a mass density (498.23 K, 5018 kPa) of 97.97 ± 0.51 kg/m3 and a mass density (498.23 K, 9985 kPa) of 287.72 ± 0.73 kg/m3. It also gave a mass density (498.23 K, 14994 kPa) of 373.12 ± 0.86 kg/m3, a mass density (498.23 K, 19993 kPa) of 413.38 ± 0.97 kg/m3 and a mass density (498.23 K, 24997 kPa) of 439.84 ± 1.1 kg/m3. For the same compound, the mass density (498.23 K, 29994 kPa) was 459.71 ± 1.2 kg/m3, the mass density (498.23 K, 35006 kPa) was 475.76 ± 1.2 kg/m3 and the mass density (498.23 K, 40006 kPa) was 489.2 ± 1.4 kg/m3. It also gave a mass density (503.23 K, 5019 kPa) of 95.03 ± 0.49 kg/m3, a mass density (503.23 K, 10004 kPa) of 274.87 ± 0.7 kg/m3 and a mass density (503.23 K, 14996 kPa) of 364.53 ± 0.84 kg/m3. It also gave a mass density (503.23 K, 20003 kPa) of 406.9 ± 0.96 kg/m3, a mass density (503.23 K, 24990 kPa) of 434.25 ± 1.1 kg/m3 and a mass density (503.23 K, 29984 kPa) of 454.72 ± 1.1 kg/m3. It also gave a mass density (503.23 K, 34985 kPa) of 471.2 ± 1.2 kg/m3, a mass density (503.23 K, 39993 kPa) of 485.02 ± 1.3 kg/m3 and a mass density (508.23 K, 5019 kPa) of 92.41 ± 0.46 kg/m3. It also gave a mass density (508.23 K, 9990 kPa) of 262 ± 0.68 kg/m3, a mass density (508.23 K, 15002 kPa) of 356.04 ± 0.83 kg/m3 and a mass density (508.23 K, 19984 kPa) of 400.28 ± 0.94 kg/m3. It also gave a mass density (508.23 K, 25008 kPa) of 428.76 ± 1.1 kg/m3, a mass density (508.23 K, 29983 kPa) of 449.83 ± 1.1 kg/m3 and a mass density (508.23 K, 35004 kPa) of 466.79 ± 1.2 kg/m3. It also gave a mass density (508.23 K, 40004 kPa) of 480.91 ± 1.3 kg/m3, a mass density (513.23 K, 5014 kPa) of 89.94 ± 0.44 kg/m3 and a mass density (513.23 K, 9984 kPa) of 250.08 ± 0.65 kg/m3. For the same compound, the mass density (513.23 K, 14990 kPa) was 347.39 ± 0.81 kg/m3, the mass density (513.23 K, 19997 kPa) was 393.83 ± 0.93 kg/m3 and the mass density (513.23 K, 25007 kPa) was 423.21 ± 1 kg/m3. It also gave a mass density (513.23 K, 29985 kPa) of 444.89 ± 1.1 kg/m3, a mass density (513.23 K, 35002 kPa) of 462.3 ± 1.2 kg/m3 and a mass density (513.23 K, 40010 kPa) of 476.76 ± 1.3 kg/m3. The mass density (518.22 K, 5019 kPa) was 87.78 ± 0.42 kg/m3, the mass density (518.22 K, 14988 kPa) was 338.79 ± 0.8 kg/m3 and the mass density (518.22 K, 25002 kPa) was 417.6 ± 1 kg/m3. For the same compound, the mass density (518.22 K, 30005 kPa) was 440.02 ± 1.1 kg/m3, the mass density (518.22 K, 39988 kPa) was 472.55 ± 1.3 kg/m3 and the mass density (518.23 K, 9996 kPa) was 239.51 ± 0.63 kg/m3. The mass density (518.23 K, 20004 kPa) was 386.86 ± 0.92 kg/m3, the mass density (518.23 K, 34991 kPa) was 457.76 ± 1.2 kg/m3 and the mass density (523.22 K, 5019 kPa) was 85.68 ± 0.41 kg/m3. For the same compound, the mass density (523.22 K, 9990 kPa) was 229.24 ± 0.66 kg/m3, the mass density (523.22 K, 14985 kPa) was 330.32 ± 0.83 kg/m3 and the mass density (523.22 K, 25011 kPa) was 412.04 ± 1 kg/m3. The mass density (523.22 K, 29990 kPa) was 435.04 ± 1.1 kg/m3, the mass density (523.22 K, 34984 kPa) was 453.26 ± 1.2 kg/m3 and the mass density (523.22 K, 40013 kPa) was 468.46 ± 1.3 kg/m3. The mass density (523.23 K, 20001 kPa) was 380.33 ± 0.92 kg/m3, the Critical pressure (Liquid) was 4225.5 ± 11 kPa and the Critical temperature (Liquid) was 435.75 ± 0.11 K. It also gave a Critical density (Liquid, visual observation in a variable volume cell:FP) of 238.12 ± 4.8 kg/m3.
